Measurements as given in patent US20230115945A1, “AMINOPYRIMIDINE COMPOUNDS” (TYRA BIOSCIENCES, INC., priority 2019, published 2023).

Key:
FGFR4 = target: T1, FGFR4 (Homo sapiens, UniProt P22455); assay: Kinase binding assay (Kd), FGFR4; conditions: 11-point 3-fold dilution, qPCR readout
T1 construct: made in house; host or cells: E. coli host derived from BL21, infected with T7 phage
Outline: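 Competition binding: kinase-tagged T7 phage, ligand-coated streptavidin beads and an 11-point 3-fold compound series (0.9% DMSO final) were incubated 1 h at room temperature. Bead-bound kinase was eluted and quantified by qPCR. Kd was fitted to the Hill equation with slope fixed at −1.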

[1] = system: SNU-16 cells (Gastric Carcinoma, FGFR2 amplification); assay: Cancer cell line cell viability assay, SNU-16; type: cell-based; conditions: Homo sapiens, 72 hours, Cell Titer-Glo 2.0, read-out: Cancer Cell Viability Assays SNU-16 (IC50 nM)
Text: [table] To detect the change of intracellular ATP by Cell Titer-Glo® and to evaluate the inhibitory effect of the compounds on cancer cell lines by determining the in vitro IC50 value of the compounds. Cell Titer-Glo® 2.0 Luminescent cell viability assay reagent was purchased from Promega (Madison, Wis.). RT112/84, SNU-16, and KG-1 cell lines were purchased from American Type Culture Collection (Manassas, Va.). UM-UC-14 cell line was purchased from Sigma (St. Louis, Mo.). RT112/84, UM-UC-14, SNU-16, and KG-1 cells were cultured in RPMI1640 media supplemented with 10% fetal bovine serum. Cultures were maintained at 37° C. in a humidified atmosphere of 5% CO2 and 95% air. Cell Viability Assay Procedure: Cells were plated in 96-well clear bottom/white plates (Corning #3903) at 10,000 cells/well in 100 μl of media, incubated overnight. The next day, test compound DMSO stock solutions were made at 10 mM and 2 μM final concentration. Compounds were then added to cells in a 9-dose, […] dilution series starting at 30 μM with an HP 300e Digital Dispenser (each dose was applied in triplicate). DMSO was backfilled to each well up to 301 nL total volume of test compound+DMSO, and a total of 301 nL DMSO was added to a control/no test compound well in triplicate. The cells in cell culture plates were incubated with the compounds at 37° C. and 5% CO2 for 72 hours. Then 50 μl of Cell Titer Glo 2.0 reagent was added to each well of the cell culture plates. The contents were covered from light and mixed on an orbital shaker at room temperature for 10 min. Luminescence was recorded by a Synergy H1 Microplate Reader (Biotek, Winooski, Vt.). Cells were assessed as a percentage of DMSO only treated control cells. Curves were plotted and IC50 values were calculated using the GraphPad Prism 8 program based on a sigmoidal dose-response equation (4 parameter).

T1 sequence (P22455 22-802): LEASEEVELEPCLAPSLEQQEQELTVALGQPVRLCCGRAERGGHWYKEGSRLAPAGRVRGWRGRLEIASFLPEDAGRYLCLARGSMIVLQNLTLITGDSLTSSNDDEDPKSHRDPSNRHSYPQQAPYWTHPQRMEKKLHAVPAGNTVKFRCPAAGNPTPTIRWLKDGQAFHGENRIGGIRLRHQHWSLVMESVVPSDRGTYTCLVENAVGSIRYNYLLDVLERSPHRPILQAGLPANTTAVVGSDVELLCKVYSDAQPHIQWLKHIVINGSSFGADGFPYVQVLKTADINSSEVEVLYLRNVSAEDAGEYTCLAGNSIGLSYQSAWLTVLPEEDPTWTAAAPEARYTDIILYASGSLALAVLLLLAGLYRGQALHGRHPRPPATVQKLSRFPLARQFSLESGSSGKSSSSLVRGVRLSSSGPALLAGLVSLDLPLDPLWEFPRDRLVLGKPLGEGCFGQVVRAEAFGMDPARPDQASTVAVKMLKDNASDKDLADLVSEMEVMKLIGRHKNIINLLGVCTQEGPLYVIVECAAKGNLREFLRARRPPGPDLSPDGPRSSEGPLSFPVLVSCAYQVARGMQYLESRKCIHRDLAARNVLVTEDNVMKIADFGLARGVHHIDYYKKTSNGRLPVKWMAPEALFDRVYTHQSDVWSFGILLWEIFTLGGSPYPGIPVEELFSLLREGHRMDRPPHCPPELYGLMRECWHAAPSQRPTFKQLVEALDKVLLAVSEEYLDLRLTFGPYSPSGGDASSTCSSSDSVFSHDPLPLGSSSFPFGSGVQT

Structure (SMILES)	Kd (FGFR4) [nM]	IC50 [1] [nM]
C=CC(=O)Nc1ccc2c(c1)c(C)cn2-c1nc(Nc2ccc(N=S(C)(C)=O)c(F)c2)ncc1Cl [Example 60, N-[1-[5-Chloro-2-[4-[[dimethyl(oxo)-λ^6-sulfanylidene]amino]-3-fluoro-anilino]pyrimidin-4-yl]-3-methyl-indol-5-yl]prop-2-enamide]	42	–
C=CC(=O)Nc1ccc2c(c1)c(C)cn2-c1nc(Nc2ccc(N=S(C)(C)=O)cc2)ncc1Cl [Example 61, N-[1-[5-Chloro-2-[4-[[dimethyl(oxo)-λ^6-sulfanylidene]amino]anilino]pyrimidin-4-yl]-3-methyl-indol-5-yl]prop-2-enamide]	100	–
C=CC(=O)Nc1ccc2c(c1)c(C)cn2-c1nc(Nc2ccc(N=S(C)(C)=O)c(F)c2)ncc1C#N [Example 62, N-[1-[5-Cyano-2-[4-[[dimethyl(oxo)-λ^6-sulfanylidene]amino]-3-fluoro-anilino]pyrimidin-4-yl]-3-methyl-indol-5-yl]prop-2-enamide]	170	–

Further lines, results first:

Kd (FGFR4) [nM]	IC50 [1] [nM]	Structure (SMILES)
39	–	C=CC(=O)Nc1ccc2c(c1)c(C)cn2-c1nc(Nc2ccc(N=S(C)(C)=O)c(F)c2)ncc1C [Example 63, N-[1-[2-[4-[[dimethyl(oxo)-λ^6-sulfanylidene]amino]-3-fluoro-anilino]-5-methyl-pyrimidin-4-yl]-3-methyl-indol-5-yl]prop-2-enamide]
59	–	C=CC(=O)Nc1ccc2c(c1)c(C)cn2-c1nc(Nc2ccc(N=S(C)(C)=O)c(OC)c2)ncc1Cl [Example 64, N-[1-[5-Chloro-2-[4-[[dimethyl(oxo)-λ^6-sulfanylidene]amino]-3-methoxy-anilino]pyrimidin-4-yl]-3-methyl-indol-5-yl]prop-2-enamide]
680	65	C=CC(=O)Nc1ccc2c(ccn2-c2nc(Nc3ccc(N=S(C)(C)=O)cc3)ncc2Cl)c1 [Example 66, N-[1-[5-chloro-2-[4-[[dimethyl(oxo)-λ^6-sulfanylidene]amino]anilino]-pyrimidin-4-yl]indol-5-yl]prop-2-enamide]
370	12	C=CC(=O)Nc1ccc2c(ccn2-c2nc(Nc3ccc(S(C)(=N)=O)cc3)ncc2Cl)c1 (stereo not shown) [Example 70, N-[1-[5-Chloro-2-[4-(methylsulfonimidoyl)anilino]-pyrimidin-4-yl]indol-5-yl]prop-2-enamide]
230	–	C=CC(=O)Nc1ccc2c(-c3nc(Nc4ccc(N=S(C)(C)=O)cc4)ncc3Cl)cn(C)c2c1 [Example 92, N-[3-[5-chloro-2-[4-[[dimethyl(oxo)-λ^6-sulfanylidene]amino]anilino]pyrimidin-4-yl]-1-methyl-indol-6-yl]prop-2-enamide]
